Data published in patent publication US11779576B2, “Method of treating C3 glomerulopathy” (CHEMOCENTRYX, INC., priority 2016, dated 2023).
Entries after “also recorded” stand apart in the source; their conditions may differ.

Assays:
[1] = system: patient with progressive complement 3 glomerulonephritis (recurrent C3GN in a renal transplant); test: Study of compound 1 in a patient with progressive C3 glomerulonephritis: eGFR, proteinuria, clinical condition; format: in vivo, human
Excerpt: Under the Special Needs program in the United Kingdom (which is similar to a compassionate use protocol in the US), a C3 glomerulonephritis patient received treatment with the orally administered complement inhibitor compound 1, following the protocol detailed below. The patient had refractory disease despite a kidney transplant and prior treatment with the broadly immunosuppressive drugs rituximab, cyclophosphamide, mycophenolate mofetil, tacrolimus, and steroids. Renal allograft biopsies were taken pre-dose, 2 and 7 months during therapy. The primary efficacy objective is to evaluate the efficacy of compound 1 based on change from baseline in eGFR (MDRD, Estimated Glomerular Filtration Rate) and proteinuria. The patient will have biopsy proven recurrent […] prior to start of dosing, and be deemed eligible based on the inclusion and exclusion criteria. Screening procedures will include recording of demographics, medical history, medication history, physical examination and vital signs, serum chemistry, hematology, urinalysis (including UPCR measurement), viral screening (if not performed within prior 12 weeks), and estimated glomerular filtration rate (eGFR) assessment based on serum creatinine. The baseline eGFR needs to be at least 25 mL/min/1.73 m^2 for study eligibility. On Day 1, the patient will start compound 1 treatment. Patients will take compound 1 30 mg orally twice daily for an initial period of 84 days. The patient will visit the study center on Days 1, 8, 15, 29, 57, and 85. The compound 1 dose will be taken in the morning optimally within one hour after breakfast and in the evening optimally within one hour after dinner. If the patient's clinical condition stabilizes or improves, and there are no adverse events preventing further treatment, the patient may be treated for another 84-day treatment cycle. The 84-day cycles may be repeated for a total of up to 4 cycles under this protocol. For the 84-day cycles after the first cycle, the patient will visit the study center every 4 weeks. There will be 4-week follow-up period after the patient stops the compound 1 treatment. Efficacy Assessments Include: • 1. First morning urinary PCR; • 2. eGFR by Modification of Diet in Renal Disease (MDRD) formula based on serum creatinine; • 3. Plasma and urine pharmacodynamic markers, e.g., MCP-1, C3a, C5a, properdin, and sC5b-9; • 4. Glomerular inflammation (e.g., crescents, inflammatory cell infiltrate, endocapillary proliferation) and C3 deposition in a follow-up renal biopsy sample; Pharmacokinetic Assessments

[2] = system: glomeruli of renal allograft of C3 glomerulonephritis patient; test: Renal allograft biopsies (histology, immunofluorescence, CD68 staining) pre-dose and at 2 and 7 months of compound 1 therapy; format: in vivo, human; conditions: for Endocapillary hypercellularity/total: pre-treatment 3/11; for CD68-positive cells/glomerulus: pre-treatment 11; for Immunoflourescence microscopy, IgM: pre-treatment trace; for glomerular inflammation: after treatment, PAS staining (FIG. 2)
Excerpt: Under the Special Needs program in the United Kingdom (which is similar to a compassionate use protocol in the US), a C3 glomerulonephritis patient received treatment with the orally administered complement inhibitor compound 1, following the protocol detailed below. The patient had refractory disease despite a kidney transplant and prior treatment with the broadly immunosuppressive drugs rituximab, cyclophosphamide, mycophenolate mofetil, tacrolimus, and steroids. Renal allograft biopsies were taken pre-dose, 2 and 7 months during therapy. […] Protocol of the Study Aim Efficacy Assessments Include: • 1. First morning urinary PCR; • 2. eGFR by Modification of Diet in Renal Disease (MDRD) formula based on serum creatinine; • 3. Plasma and urine pharmacodynamic markers, e.g., MCP-1, C3a, C5a, properdin, and sC5b-9; • 4. Glomerular inflammation (e.g., crescents, inflammatory cell infiltrate, endocapillary proliferation) and C3 deposition in a follow-up renal biopsy sample; Pharmacokinetic Assessments Renal biopsies will be analyzed by periodic acid—Schiff (PAS) staining, immunofluorescence staining for C3, C5b-9, and potentially other markers. Electron microscopy may also be performed.

Cc1ccc(NC(=O)[C@H]2CCCN(C(=O)c3c(C)cccc3F)[C@H]2c2ccc(NC3CCCC3)cc2)cc1C(F)(F)F [compound 1]
patient's condition in response to treatment ([1]; C3 glomerulonephritis patient, refractory disease after kidney transplant, compound 1 30 mg orally twice daily): improved
eGFR decline ([1]; after 1 month of treatment (FIG. 1)): attenuated
eGFR ([1]; during compound 1 treatment): stabilized
eGFR decline ([1]; eGFR 83 mL/min/1.73 m^2 14 months prior, 46 mL/min/1.73 m^2 at start of treatment): attenuated or stopped
Proteinuria drop ([1]; with compound 1 treatment, 30 mg orally twice daily): approximately 80%
Endocapillary hypercellularity/total ([2]; 2 months of therapy): 0/36
CD68-positive cells/glomerulus ([2]; 2 months of therapy): 2-3 cells/glomerulus
Immunoflourescence microscopy, IgM ([2]; 2 months of therapy): neg
Endocapillary hypercellularity/total ([2]; 7 months of therapy): 0/14
CD68-positive cells/glomerulus ([2]; 7 months of therapy): 1-2 cells/glomerulus
Immunoflourescence microscopy, IgM ([2]; 7 months of therapy): neg
glomerular inflammation [2]: reduction
glomerular inflammation ([2]; listed as Compound 1): reduced
glomerular endocapillary proliferation ([2]; on-treatment kidney biopsy compared to pre-treatment biopsy): clearance
glomerular inflammatory macrophages ([2]; on-treatment/repeat biopsies compared to pre-treatment, CD68 staining (FIG. 2)): marked decrease; also recorded: reduction
glomerular endocapillary hypercellularity ([2]; repeat biopsies, PAS staining after treatment (FIG. 2)): resolution; also recorded: reduction
